Patent publication US20250367154A1, “FORMULATIONS FOR PROMOTING HYDRATION AND METHODS OF USE THEREOF” (UNIVERSITY OF FLORIDA RESEARCH FOUNDATION, INCORPORATED, priority 2020, published 2025)
Entries after “also recorded” stand apart in the source; their conditions may differ.

test system: Small intestinal mucosal tissues (ileum and jejunum); test: Ussing chamber sodium flux (net Na absorption, 22Na); design: species or system Swiss mice; settings: single free amino acid in solution, FIG. 4
Description: Sodium (Na) Absorption Studies: measure net fluid and electrolyte absorption, wherein absorptive processes occur predominantly in the tip of the villi and secretory processes occur in the crypt. Na absorption studies were performed on certain of the amino acids present in 6AA-Hyd. […] Small intestinal mucosal tissues (ileum and jejunum) from 8-week old male Swiss mice were mounted in Ussing chambers containing isotonic Ringer solution, that was bubbled with 95% O2 and 5% CO2 and maintained at 37° C. throughout the experiment. After the tissues were allowed to stabilize, the conductance (G; expressed as mS/cm2) was recorded, and intestinal tissues were paired based on similar conductance. Sodium radioisotope (22Na) was added to either the basolateral or apical side of each tissue pair (Hot). Ringer samples were taken every 15 minutes from the contralateral sides (Cold). Sample 22Na activity was analyzed using a gamma counter, and unidirectional net sodium flux (Jnet; μeq·cm2·h−1) was calculated. [formula] [CPM=count per minute, CPM1=previous sample, CPM2=following sample; Blank=no 22Na added; 9/10=dilution factor for each sample (0.5 mL to 5 mL); 5=chamber volume (5 mL); 4=time factor (15 min to 60 min); 140=sodium concentration; Hot CPM=“Hot” sample activity; Cold CPM=“Cold” sample activity; 10=volume factor for Hot sample (0.1 mL to 1 mL); 0.3=intestinal surface area (cm2)]

Which “net sodium (Na) absorption relative to control solution” value does the source give for `N[C@@H](CC(=O)O)C(=O)O` [aspartic acid] here?
The value was “increase net Na absorption relative to a control; also recorded: significantly higher than that of control solution”.

How did the “net sodium (Na) absorption relative to control solution” value turn out when `N[C@@H](CO)C(=O)O` [serine] was run?
Its value is “increase net Na absorption relative to a control; also recorded: significantly higher than that of control solution”.

`CC(C)[C@H](N)C(=O)O` [valine] was tested. Which “net sodium (Na) absorption relative to control solution” value did it give?
The value was “increase net Na absorption relative to a control; also recorded: significantly higher than that of control solution”.
